These results are taken from patent publication US20140000883A1, “PETROLEUM RECOVERY PROCESS AND SYSTEM” (Shell Oil Company, priority 2012, published 2014).

Data set [1] in a line: SARA analysis of extracted bitumen samples. Conditions: bitumen extracted at 30° C. As for the experimental part:
The bitumen samples extracted at 30° C. from each oil sands sample were evaluated by SARA analysis to determine the saturates, aromatics, resins, and asphaltenes composition of the bitumen samples extracted by each solvent.

The nature of data set [2]: Incremental oil recovery from formation core after water-flooding. Conditions: after waterflooding with brine. As for the experimental part:
Incremental recovery of oil from a formation core using an oil recovery formulation consisting of dimethyl sulfide following oil recovery from the core by water-flooding was measured to evaluate the effectiveness of DMS as a tertiary oil recovery agent.
Two 5.02 cm long Berea sandstone cores with a core diameter of 3.78 cm and a permeability between 925 and 1325 mD were saturated with a brine having a composition as set forth in Table 7.
After saturation of the cores with brine, the brine was displaced by a Middle Eastern Asphaltic crude oil having the characteristics as set forth above in Table 3 to saturate the cores with oil.
Oil was recovered from each oil saturated core by the addition of brine to the core under pressure and by subsequent addition of DMS to the core under pressure. Each core was treated as follows to determine the amount of oil recovered from the core by addition of brine followed by addition of DMS. Oil was initially displaced from the core by addition of brine to the core under pressure. A confining pressure of 1 MPa was applied to the core during addition of the brine, and the flow rate of brine to the core was set at 0.05 ml/min. The core was maintained at a temperature of 50° C. during displacement of oil from the core with brine. […]

As for `CSC` [Dimethyl Sulfide, dimethyl sulfide], the “extraction of / miscibility with asphaltenes” value in data set [1] was “excellent miscibility properties”. Also, in data set [2], the “oil recovered of the oil remaining in the core after the waterflood” value was “approximately 60%”.
